“And” between values parts separate entries of the source, which are not always exact repeats. Identical values can stand only once.
Tested on: ZR-75-1 cells
Assay: NanoString human kinome mRNA quantification
Format: cell-based
Text: Human mRNAs were hybridised to NanoString human kinome and control code sets, then subjected to quantification using NanoString software. […] To permit data compaction, and simple kinome‐wide comparisons, the fold changes are log2 transformed. […] Cell pellets were resuspended at a concentration of ~6,500 cells/μl in RLT buffer (Qiagen). […] For total copy numbers, triplicate normalised count values were averaged, and to calculate fold induction, means were divided by triplicate mean values from matched DMSO controls. P‐values were calculated using unpaired t‐test (GraphPad Prism software) by employing treated and control count data for each kinase mRNA.

For `NC1(c2ccc(-c3nc4ccn5c(=O)[nH]nc5c4cc3-c3ccccc3)cc2)CCC1` [MK-2206], the “MAST2 Normalised counts (single replicates)” value (MAST2 mRNA, replicates 1-3) was 738.65 and 699.23 and 725.5, the “MAST3 Normalised counts (single replicates)” value (MAST3 mRNA, replicates 1-3) was 218.81 and the “MAST4 Normalised counts Average” value (MAST4 mRNA, average of 3) was 166.143. The “MAST4 Normalised counts (single replicates)” value (MAST4 mRNA, replicates 1-3) was 166 and 165.82 and 166.61, the “MASTL Normalised counts Average” value (MASTL mRNA, average of 3) was 679.5 and the “MASTL Normalised counts (single replicates)” value (MASTL mRNA, replicates 1-3) was 701.38 and 631.47 and 705.65. The “MATK Normalised counts (single replicates)” value (MATK mRNA, replicates 1-3) was 210.28, the “MERTK Normalised counts Average” value (MERTK mRNA, average of 3) was 1 and the “MERTK Normalised counts (single replicates)” value (MERTK mRNA, replicates 1-3) was 1. The “MET Normalised counts Average” value (MET mRNA, average of 3) was 45.06, the “MET Normalised counts (single replicates)” value (MET mRNA, replicates 1-3) was 44.2 and 35.51 and 55.47 and the “MINK1 Normalised counts Average” value (MINK1 mRNA, average of 3) was 1315.77. For the same molecule, the “MINK1 Normalised counts (single replicates)” value (MINK1 mRNA, replicates 1-3) was 1338.56 and 1283.89 and 1324.87, the Average normalised counts (MKNK1 mRNA) was 747.723 and the Average normalised counts (MKNK2 mRNA) was 1542.12. The Average normalised counts (MLKL mRNA) was 206.987, the Average normalised counts (MOK mRNA) was 276.793 and the Average normalised counts (MOS mRNA) was 1.463. It also gave an Average normalised counts (MST1R mRNA) of 587.597, an Average normalised counts (MST4 mRNA) of 1197.2 and an Average normalised counts (MTOR mRNA) of 1169.76. The Average normalised counts (MUSK mRNA) was 1, the Average normalised counts (MYLK2 mRNA) was 3.573 and the Average normalised counts (MYLK3 mRNA) was 4.65. It also gave an Average normalised counts (MYLK4 mRNA) of 3.183, an Average normalised counts (MYLK mRNA) of 35.0933 and an Average normalised counts (MYO3B mRNA) of 1.693. It also gave an Average normalised counts (NEK1 mRNA) of 126.33, an Average normalised counts (NEK2 mRNA) of 1658.91 and an Average normalised counts (NEK3 mRNA) of 279.833. It also gave an Average normalised counts (NEK5 mRNA) of 63.3867, an Average normalised counts (NEK6 mRNA) of 316.677 and an Average normalised counts (NEK7 mRNA) of 1505.67. For the same molecule, the Average normalised counts (NEK8 mRNA) was 178.517, the Average normalised counts (NEK9 mRNA) was 368.757 and the Average normalised counts (NEK10 mRNA) was 2.217. The Average normalised counts (NIM1 mRNA) was 1.163, the Average normalised counts (NLK mRNA) was 173.16 and the Average normalised counts (NPR1 mRNA) was 1. It also gave an Average normalised counts (NPR2 mRNA) of 1, an Average normalised counts (NRBP1 mRNA) of 1653.03 and an Average normalised counts (NRBP2 mRNA) of 1124.63. It also gave an Average normalised counts (NRK mRNA) of 29.1233, an Average normalised counts (NTRK1 mRNA) of 2.95 and an Average normalised counts (NTRK2 mRNA) of 77.2267. It also gave an Average normalised counts (NTRK3 mRNA) of 11.2267, an Average normalised counts (NUAK1 mRNA) of 101.57 and an Average normalised counts (NUAK2 mRNA) of 96.2433. For the same molecule, the Average normalised counts (OBSCN mRNA) was 96.8, the Average normalised counts (OXSR1 mRNA) was 220.06 and the Average normalised counts (PAK1 mRNA) was 710.853. The Average normalised counts (PAK2 mRNA) was 2547.5, the Average normalised counts (PAK3 mRNA) was 3.48 and the Average normalised counts (PAK4 mRNA) was 1206.53. It also gave an Average normalised counts (PAK6 mRNA) of 64.56, an Average normalised counts (PAK7 mRNA) of 2.957 and an Average normalised counts (PAN3 mRNA) of 788.86. For the same molecule, the “ROCK2 normalised counts, average” value (ROCK2 mRNA, average of 3 replicates) was 1654.49, the ROCK2 normalised counts (ROCK2 mRNA, single replicates) was 1580.35 and 1693.07 and 1690.04 and the “ROR1 normalised counts, average” value (ROR1 mRNA, average of 3 replicates) was 3.17. The ROR1 normalised counts (ROR1 mRNA, single replicates) was 1.48 and 3.37 and 4.66, the “ROR2 normalised counts, average” value (ROR2 mRNA, average of 3 replicates) was 177.843 and the ROR2 normalised counts (ROR2 mRNA, single replicates) was 183.27 and 188.41 and 161.85. For the same molecule, the “ROS1 normalised counts, average” value (ROS1 mRNA, average of 3 replicates) was 1, the ROS1 normalised counts (ROS1 mRNA, single replicates) was 1 and the “RPS6KA1 normalised counts, average” value (RPS6KA1 mRNA, average of 3 replicates) was 743.577. The RPS6KA1 normalised counts (RPS6KA1 mRNA, single replicates) was 752.28 and 733.11 and 745.34, the “RPS6KA2 normalised counts, average” value (RPS6KA2 mRNA, average of 3 replicates) was 42.18 and the RPS6KA2 normalised counts (RPS6KA2 mRNA, single replicates) was 39.65 and 43.33 and 43.56. For the same molecule, the “RPS6KA3 normalised counts, average” value (RPS6KA3 mRNA, average of 3 replicates) was 81.17, the RPS6KA3 normalised counts (RPS6KA3 mRNA, single replicates) was 77.83 and 82.42 and 83.26 and the “RPS6KA4 normalised counts, average” value (RPS6KA4 mRNA, average of 3 replicates) was 830.71. The RPS6KA4 normalised counts (RPS6KA4 mRNA, single replicates) was 858.63 and 809.56 and 823.94, the “RPS6KA5 normalised counts, average” value (RPS6KA5 mRNA, average of 3 replicates) was 131.06 and the RPS6KA5 normalised counts (RPS6KA5 mRNA, single replicates) was 126.01 and 136.28 and 130.89. For the same molecule, the “RPS6KA6 normalised counts, average” value (RPS6KA6 mRNA, average of 3 replicates) was 136.14, the RPS6KA6 normalised counts (RPS6KA6 mRNA, single replicates) was 127.82 and 135.42 and 145.18 and the “RPS6KB1 normalised counts, average” value (RPS6KB1 mRNA, average of 3 replicates) was 1559.99. For the same molecule, the RPS6KB1 normalised counts (RPS6KB1 mRNA, single replicates) was 1574.89 and 1571.44 and 1533.65, the “RPS6KB2 normalised counts, average” value (RPS6KB2 mRNA, average of 3 replicates) was 3538.09 and the RPS6KB2 normalised counts (RPS6KB2 mRNA, single replicates) was 3546.44 and 3576.5 and 3491.33. For the same molecule, the “RPS6KC1 normalised counts, average” value (RPS6KC1 mRNA, average of 3 replicates) was 1368.65, the RPS6KC1 normalised counts (RPS6KC1 mRNA, single replicates) was 1361.29 and 1349.92 and 1394.73 and the “RPS6KL1 normalised counts, average” value (RPS6KL1 mRNA, average of 3 replicates) was 85.8967. For the same molecule, the RPS6KL1 normalised counts (RPS6KL1 mRNA, single replicates) was 86.01 and 87.63 and 84.05 and the “RYK normalised counts, average” value (RYK mRNA, average of 3 replicates) was 1136.11.

Reference: publication PMC5007552, “The hVps34‐SGK3 pathway alleviates sustained PI3K/Akt inhibition by stimulating mTORC1 and tumour growth” (The EMBO Journal, 2016)
